Read-outs that look alike come from different tables or passages of the source.

Usually half-life stands for how long it takes for the measured level to halve.

Data set [1] can be described thus: Pharmacokinetics of V158411 and irinotecan, single and combination administration. Format: in vivo. Conditions: mouse; for half-life / CL/F: female, Balb/C, plasma; for CL/F: read-out: CL or CL/F. As for the experimental part: Dosing of animals and collection of samples was conducted by Quotient Bioresearch (Rushden) Ltd, UK. V158411 was administered by intravenous (IV) bolus injection to female Balb/C mice, male Sprague-Dawley rats or male beagle dogs. Plasma samples were prepared by protein precipitation with acetonitrile containing internal standard (IS; dextromethorphan, 0.5 μg/mL); the analysis plate was centrifuged at 3,000 rpm for 10 minutes at 4°C. […] The ratios of analyte against IS peak areas were calculated, and concentrations derived from calibration lines generated by Quanlynx (Waters Ltd.).
Pharmacokinetic parameters were calculated using the software package WinNonLin (Pharsight Corp.). Data was analyzed using noncompartmental analysis and fitted using plasma concentration versus time curves.

The next data set addresses T1, Chk1 (Homo sapiens, UniProt O14757).
T1 sequence (O14757 1-476): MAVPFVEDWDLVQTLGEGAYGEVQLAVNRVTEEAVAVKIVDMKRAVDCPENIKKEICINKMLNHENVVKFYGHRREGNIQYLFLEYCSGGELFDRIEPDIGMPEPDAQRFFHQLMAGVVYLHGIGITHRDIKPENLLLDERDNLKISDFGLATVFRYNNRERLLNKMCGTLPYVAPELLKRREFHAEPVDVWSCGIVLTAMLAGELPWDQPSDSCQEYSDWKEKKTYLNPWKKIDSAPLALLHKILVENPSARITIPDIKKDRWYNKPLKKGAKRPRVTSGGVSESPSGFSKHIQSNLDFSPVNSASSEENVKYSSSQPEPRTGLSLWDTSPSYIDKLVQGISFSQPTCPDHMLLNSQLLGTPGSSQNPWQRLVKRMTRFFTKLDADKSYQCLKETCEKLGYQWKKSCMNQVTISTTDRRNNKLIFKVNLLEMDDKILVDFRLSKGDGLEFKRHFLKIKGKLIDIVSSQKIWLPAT
Nature of the data set: Western blotting of pChk1 (S296) in HT29 cells (gemcitabine or camptothecin; washout). Particulars: 500 nM for 1 hour then drug free media. Type of data set: cell-based. On the procedure:
Figure 3 Effect of V158411 on etoposide, gemcitabine and camptothecin induced DNA damage checkpoint and cell cycle proteins A. HT29 cells were exposed to increasing concentrations of V158411 for 1 hour followed by 25 μM etoposide for a further 5 hours. Auto-phosphorylation of Chk1 and Chk2 was determined by immunoblotting. B. HT29 cells were treated with gemcitabine (25 nM) or camptothecin (50 nM) for 16 hours followed by increasing doses of V158411 for a further 24 hours. C. HT29 cells were treated with 500 nM V158411 for 1 hour, media removed and replaced with drug free. Cells were harvested at the indicated time points post the removal of V158411. D. HT29 cells were treated with 0 or 100 nM camptothecin for 16 hours followed by V158411 for 2 - 24 hours. After the indicated time, media was removed and replaced with drug free media. All cells were harvested 24 hours after the initial addition of V158411. Protein expression was characterized by immunoblotting as described in materials and methods.
Anti-pHistone H3 (S10) was obtained from Millipore; pCdc2 (Y15), pCdc25C (S216), Chk1, pChk1 (S317), pChk2 (S516), Cyclin B1, pH2AX (S139), GAPDH and Actin from Cell Signaling Technologies and pChk1 (S296) from Abcam. […] Protein concentration was determined using BCA kit (Pierce). […]
A general note: Immunoblotting shows a protein as a band on a membrane.

The mark [2] stands for this setting: other: V158411 intravenous, irinotecan intraperitoneal.
The mark [3] stands for this setting: other: irinotecan intraperitoneal, V158411 intravenous.

In the case of `CN(C)CC(C)(C)COc1ccc2[nH]c(-c3cc(NC(=O)c4cnn(Cc5ccccc5)c4)c[nH]c3=O)cc2c1` [V158411], in data set [1] (setting [2]), the half-life was 3.4 h and the CL/F was 17.7 mL/min/kg. Further, in data set [1] (setting [3]), the half-life is 3.3 h and the CL/F was 8.2 mL/min/kg. The AUClast fold change in data set [1] (combination (C) versus single administration (I)) is given as 2.2 fold. The “duration of Chk1 inhibition (pChk1 S296) after removal of compound from the culture media” value on Chk1 is listed as “at least 24 hours”.

Source of the values: paper PMC4742142, “Identification of novel, in vivo active Chk1 inhibitors utilizing structure guided drug design” (Oncotarget, 2015).
